{"source": "patent US20190374618A1", "about": "“FIBRONECTIN OR ILK INHIBITORS FOR USE IN THE TREATMENT OF LEUKEMIA” (Chemotherapeutisches Forschungsinstitut Georg-Speyer-Haus, priority 2016, published 2019)", "molecules": {"B1": {"name": "parathyroid hormone: the most potent regulator of bone turnover (protein, UniProt P01270 32-115, looked up)", "Parathyroid hormone": "SVSEIQLMHNLGKHLNSMERVEWLRKKLQDVHNFVALGAPLAPRDAGSQRPRKKEDNVLVESHEKSLGEADKADVNVLTKAKSQ", "modifications": "Parathyroid hormone"}}, "key": {"[1]": {"settings": "patients, cardiovascular toxicity reference; cited from earlier work"}, "BCR-ABL1^T315I+ CML [2]": {"tested_on": "BCR-ABL1^T315I+ CML", "test": "intrafemoral co-injection of fibronectin with leukemia-initiating cells, retroviral transduction/transplantation model of CML", "assay_type": "in vivo, mouse (Balb/c)", "text": "FIG. 7: White blood cell counts per μl in peripheral blood (a) and survival (b) of mice intravenously transplanted (no FN) or intrafemorally co-transplanted with BCR-ABL1 (gray colors)- or BCR-ABL1T315I (blue colors)-transduced bone marrow and vehicle or FN.\n(§1) The inventors have shown by immunofluorescence (FIG. 5) and immunohistochemistry of bone sections of mice transplanted with empty vector-transduced cells, or mice with BCR-ABL1^WT+ or BCR-ABL1^T315I+ CML-like myeloproliferative neoplasia (FIG. 6), that BCR-ABL1^T315I+ cells deposit less fibronectin in their environment than BCR-ABL1^WT+ cells, which is likely also reflected by their differences in their interaction with the BMM.\n(§2) Our retroviral stock was generated and bone marrow transplantation experiments were performed as described earlier (9, 14, 16). In general, we injected between 2.25 and 2.5×10^5 transduced cells into female irradiated (750 cGy) Balb/c recipient mice. The T315I point mutation in BCR-ABL1 was introduced by site-directed mutagenesis in the open reading frame of the MSCV IRES GFP vector.\n(§3) Therapeutic application of fibronectin was performed as follows: intravenous application of 200 μg bovine fibronectin (in HBSS) on days 9, 10 and 12 post transplantation; for vehicle control treatments, 200 μl of HBSS (equal volume to fibronectin dose) was administered. […]"}, "BCR-ABL1^T315I+ CML [3]": {"tested_on": "BCR-ABL1^T315I+ CML", "test": "intravenous fibronectin on days 9, 10 and 12 post transplantation, retroviral transduction/transplantation model of CML", "assay_type": "in vivo, mouse (Balb/c)", "settings": "three intravenous injections on days 9, 10 and 12 post transplantation, BCR-ABL1T315I+ CML vs vehicle-treated mice, FIG. 8", "text": "FIG. 8: Kaplan-Meier survival curve of mice intravenously transplanted with BCR-ABL1 (gray colours) or BCR-ABL1T315I (blue colours)-transduced bone marrow treated with vehicle or FN on days 9, 10 and 12 after transplantation.\nas §1, §2, §3"}, "LSC in CML": {"tested_on": "LSC in CML", "settings": "but not AML; cited from earlier work"}}, "data": [{"molecule": "Cc1nc(Nc2ncc(C(=O)Nc3c(C)cccc3Cl)s2)cc(N2CCN(CCO)CC2)n1", "note": "[dasatinib]", "values": [{"measurement": "adverse events", "setting": "[1]", "value": "frequently associated with severe adverse events"}]}, {"molecule": "Cc1cn(-c2cc(NC(=O)c3ccc(C)c(Nc4nccc(-c5cccnc5)n4)c3)cc(C(F)(F)F)c2)cn1", "note": "[nilotinib]", "values": [{"measurement": "adverse events", "setting": "[1]", "value": "frequently associated with severe adverse events"}]}, {"molecule": "Cc1ccc(C(=O)Nc2ccc(CN3CCN(C)CC3)c(C(F)(F)F)c2)cc1C#Cc1cnc2cccnn12", "note": "[ponatinib]", "values": [{"measurement": "adverse events", "setting": "[1]", "value": "frequently associated with severe adverse events"}]}, {"molecule": "fibronectin: Murine fibronectin (Abcam ab92784) for intrafemoral injection; lyophilized bovine fibronectin (Thermo Fisher 33010018) for intravenous application", "values": [{"measurement": "tumor burden (white blood cell counts per μl in peripheral blood)", "setting": "BCR-ABL1^T315I+ CML [2]; intrafemoral co-injection of fibronectin with BCR-ABL1WT+ or BCR-ABL1T315I+ leukemia-initiating cells vs vehicle, FIG. 7a", "value": "significantly decreased the tumor burden"}, {"measurement": "survival", "setting": "BCR-ABL1^T315I+ CML [2]; recipients of BCR-ABL1T315I-transduced bone marrow, intrafemoral co-injection vs vehicle, FIG. 7b", "value": "prolonged survival"}, {"measurement": "survival", "setting": "BCR-ABL1^T315I+ CML [3]", "value": "significant prolongation of survival"}]}, {"molecule": "B1", "values": [{"measurement": "LSC number", "setting": "LSC in CML", "value": "reduction of LSC in CML"}]}]}
